# According to ChEMBL document CHEMBL4261496, “Targeting quinolone- and aminocoumarin-resistant bacteria with new gyramide analogs that inhibit DNA gyrase” (Medchemcomm, 2017):
# The source made the active and inactive calls. The rule behind the calls is not given here.
# Assays:
# Pseudomonas aeruginosa = assay: Antibacterial activity against Pseudomonas aeruginosa after 16 to 18 hrs by broth microdilution method; format: functional
# Escherichia coli [1] = assay: Antibacterial activity against gyramide-resistant Escherichia coli JW5503 harboring GyrA His45Tyr mutant after 16 to 18 hrs by broth microdilution method; format: functional
# Bacillus cereus = assay: Antibacterial activity against Bacillus cereus after 16 to 18 hrs by broth microdilution method; format: functional
# Enterococcus faecium = assay: Antibacterial activity against Enterococcus faecium after 16 to 18 hrs by broth microdilution method; format: functional
# Enterococcus faecalis = assay: Antibacterial activity against Enterococcus faecalis after 16 to 18 hrs by broth microdilution method; format: functional
# Bacillus subtilis = assay: Antibacterial activity against Bacillus subtilis after 16 to 18 hrs by broth microdilution method; format: functional
# Escherichia coli [2] = assay: Antibacterial activity against Escherichia coli UPEC after 16 to 18 hrs by broth microdilution method; format: functional
# Escherichia coli [3] = assay: Antibacterial activity against Escherichia coli BAS849 after 16 to 18 hrs by broth microdilution method; format: functional
# Escherichia coli [4] = assay: Ratio of MIC for gyramide-resistant Escherichia coli JW5503 harboring GyrA Pro35Thr mutant to MIC for Escherichia coli JW5503; format: functional
# Escherichia coli [5] = assay: Ratio of MIC for novobiocin-resistant Escherichia coli CC5 harboring GyrB Arg136His mutant to MIC for Escherichia coli HB101; format: functional
# Escherichia coli [6] = assay: Antibacterial activity against novobiocin-resistant Escherichia coli LE316 harboring GyrB Arg136Val mutant after 16 to 18 hrs in presence of PAbetaN by broth microdilution method; format: functional
# Escherichia coli [7] = assay: Antibacterial activity against ciprofloxacin-resistant Escherichia coli JW5503 harboring GyrA Asp87Tyr mutant after 16 to 18 hrs by broth microdilution method; format: functional
# Streptococcus agalactiae = assay: Antibacterial activity against Streptococcus agalactiae after 16 to 18 hrs by broth microdilution method; format: functional
# Escherichia coli [8] = assay: Ratio of MIC for ciprofloxacin-resistant Escherichia coli JW5503 harboring GyrB Ser464Phe mutant to MIC for Escherichia coli JW5503; format: functional
# [9] = Ratio of MIC for Escherichia coli BW25113 to MIC for Escherichia coli JW5503; format: functional
# DNA gyrase = DNA gyrase (Escherichia coli, UniProt P0AES4+P0AES6); assay: Inhibition of Escherichia coli DNA gyrase assessed as inhibition of pUC19 supercoiling after 30 mins by agarose gel electrophoresis; format: protein-complex assay
# Shigella flexneri = assay: Antibacterial activity against Shigella flexneri after 16 to 18 hrs by broth microdilution method; format: functional
# Escherichia coli [10] = assay: Ratio of MIC for gyramide-resistant Escherichia coli JW5503 harboring GyrA Ser97Pro mutant to MIC for Escherichia coli JW5503; format: functional
# Escherichia coli [11] = assay: Antibacterial activity against Escherichia coli BW25113 after 16 to 18 hrs by broth microdilution method; format: functional
# Escherichia coli [12] = assay: Antibacterial activity against Escherichia coli MC4100 after 16 to 18 hrs by broth microdilution method; format: functional
# Escherichia coli [13] = assay: Antibacterial activity against gyramide-resistant Escherichia coli JW5503 harboring GyrA Ser97Pro mutant after 16 to 18 hrs by broth microdilution method; format: functional
# Acinetobacter baumannii = assay: Antibacterial activity against Acinetobacter baumannii clinical isolate after 16 to 18 hrs by broth microdilution method; format: functional
# Streptococcus pyogenes = assay: Antibacterial activity against Streptococcus pyogenes after 16 to 18 hrs by broth microdilution method; format: functional
# Escherichia coli [14] = assay: Antibacterial activity against gyramide-resistant Escherichia coli JW5503 harboring GyrA Pro35Thr mutant after 16 to 18 hrs by broth microdilution method; format: functional
# Klebsiella pneumoniae = assay: Antibacterial activity against Klebsiella pneumoniae after 16 to 18 hrs by broth microdilution method; format: functional
# Salmonella typhimurium = assay: Antibacterial activity against Salmonella enterica subsp. enterica serovar Typhimurium after 16 to 18 hrs by broth microdilution method; format: functional
# Escherichia coli [15] = assay: Ratio of MIC for ciprofloxacin-resistant Escherichia coli JW5503 harboring GyrA Ser83Leu mutant to MIC for Escherichia coli JW5503; format: functional
# Morganella morganii = assay: Antibacterial activity against Morganella morganii clinical isolate after 16 to 18 hrs by broth microdilution method; format: functional
# Escherichia coli [16] = assay: Antibacterial activity against ciprofloxacin-resistant Escherichia coli JW5503 harboring GyrA Asp87Gly mutant after 16 to 18 hrs by broth microdilution method; format: functional
# Escherichia coli [17] = assay: Ratio of MIC for gyramide-resistant Escherichia coli JW5503 harboring GyrB Ser464Phe mutant to MIC for Escherichia coli JW5503; format: functional
# Escherichia coli [18] = assay: Antibacterial activity against gyramide-resistant Escherichia coli JW5503 harboring GyrA Phe96Leu mutant after 16 to 18 hrs by broth microdilution method; format: functional
# [19] = target: DNA gyrase (Escherichia coli) (UniProt P0AES6+P0AES4); assay: Inhibition of Escherichia coli DNA gyrase ATPase activity up to 100 uM using DNA as substrate after 60 mins; format: protein-complex assay
# Edwardsiella tarda = assay: Antibacterial activity against Edwardsiella tarda clinical isolate after 16 to 18 hrs by broth microdilution method; format: functional
# Escherichia coli [20] = assay: Ratio of MIC for ciprofloxacin-resistant Escherichia coli JW5503 harboring GyrA Asp87Gly mutant to MIC for Escherichia coli JW5503; format: functional
# Escherichia coli [21] = assay: Ratio of MIC for gyramide-resistant Escherichia coli JW5503 harboring GyrA Phe96Leu mutant to MIC for Escherichia coli JW5503; format: functional
# Escherichia coli [22] = assay: Ratio of MIC for novobiocin-resistant Escherichia coli LE316 harboring GyrB Arg136Val mutant to MIC for Escherichia coli HB101; format: functional
# Escherichia coli [23] = assay: Ratio of MIC for ciprofloxacin-resistant Escherichia coli JW5503 harboring GyrA Asp87Tyr mutant to MIC for Escherichia coli JW5503; format: functional
# Escherichia coli [24] = assay: Antibacterial activity against ciprofloxacin-resistant Escherichia coli JW5503 harboring GyrB Ser464Phe mutant after 16 to 18 hrs by broth microdilution method; format: functional
# [25] = test system: Staphylococcus saprophyticus; assay: Antibacterial activity against Staphylococcus saprophyticus clinical isolate after 16 to 18 hrs by broth microdilution method; format: functional
# Escherichia coli [26] = assay: Ratio of MIC for novobiocin-resistant Escherichia coli CC7 harboring GyrB Arg136Ser mutant to MIC for Escherichia coli HB101; format: functional
# Escherichia coli [27] = assay: Antibacterial activity against Escherichia coli HB101 after 16 to 18 hrs by broth microdilution method; format: functional
# [28] = test system: Staphylococcus epidermidis; assay: Antibacterial activity against Staphylococcus epidermidis clinical isolate after 16 to 18 hrs by broth microdilution method; format: functional
# Escherichia coli [29] = assay: Ratio of MIC for gyramide-resistant Escherichia coli JW5503 harboring GyrA His45Tyr mutant to MIC for Escherichia coli JW5503; format: functional
# Escherichia coli [30] = assay: Antibacterial activity against gyramide-resistant Escherichia coli JW5503 harboring GyrB Thr508Met mutant after 16 to 18 hrs by broth microdilution method; format: functional
# Staphylococcus aureus = assay: Antibacterial activity against Staphylococcus aureus subsp. aureus clinical isolate after 16 to 18 hrs by broth microdilution method; format: functional
# Escherichia coli [31] = assay: Antibacterial activity against Escherichia coli HB101 after 16 to 18 hrs in presence of PAbetaN by broth microdilution method; format: functional
# Klebsiella aerogenes = assay: Antibacterial activity against Enterobacter aerogenes clinical isolate after 16 to 18 hrs by broth microdilution method; format: functional
# Escherichia coli [32] = assay: Antibacterial activity against ciprofloxacin-resistant Escherichia coli JW5503 harboring GyrA Ser83Leu mutant after 16 to 18 hrs by broth microdilution method; format: functional
# Escherichia coli [33] = assay: Antibacterial activity against Escherichia coli JW5503 overexpressing gyrB at 51 ug/ml in presence of IPTG induction after 16 hrs by broth microdilution method; format: functional, organism-based
# Escherichia coli [34] = assay: Antibacterial activity against Escherichia coli JW5503 overexpressing gyrA/gyrB in presence of IPTG induction after 16 hrs by broth microdilution method; format: functional; details: JW5503, 16 h
# Escherichia coli [35] = assay: Antibacterial activity against Escherichia coli JW5503 after 16 to 18 hrs by broth microdilution method; format: functional
# Escherichia coli [36] = assay: Antibacterial activity against novobiocin-resistant Escherichia coli CC7 harboring GyrB Arg136Ser mutant after 16 to 18 hrs in presence of PAbetaN by broth microdilution method; format: functional
# Escherichia coli [37] = assay: Antibacterial activity against novobiocin-resistant Escherichia coli CC5 harboring GyrB Arg136His mutant after 16 to 18 hrs in presence of PAbetaN by broth microdilution method; format: functional
# Escherichia coli [38] = assay: Antibacterial activity against Escherichia coli JW5503 overexpressing gyrB in presence of IPTG induction after 16 hrs by broth microdilution method; format: functional; details: JW5503, 16 h
# Escherichia coli [39] = assay: Antibacterial activity against Escherichia coli JW5503 transfected with empty vector in absence of IPTG induction after 16 hrs by broth microdilution method; format: functional; details: JW5503, 16 h
# Escherichia coli [40] = assay: Antibacterial activity against Escherichia coli JW5503 transfected with empty vector in presence of IPTG induction after 16 hrs by broth microdilution method; format: functional; details: JW5503, 16 h
smiles,measurement,setting,value
Cc1ccc(C(F)(F)F)cc1S(=O)(=O)N[C@@H]1CCN(Cc2ccc(OC3CC3)cc2)C1,MIC,Pseudomonas aeruginosa,> 16 µg/mL
same,MIC,Escherichia coli [1],22 µg/mL
same,MIC,Bacillus cereus,8 µg/mL
same,MIC,Enterococcus faecium,8 µg/mL
same,MIC,Enterococcus faecalis,16 µg/mL
same,MIC,Bacillus subtilis,8 µg/mL
same,MIC,Escherichia coli [2],> 16 µg/mL
same,MIC,Escherichia coli [3],1 µg/mL
same,Ratio,Escherichia coli [4],10 - 100
same,Ratio,Escherichia coli [5],2 - 4
same,MIC,Escherichia coli [6],0.2 µg/mL
same,MIC,Escherichia coli [7],0.2 µg/mL
same,MIC,Streptococcus agalactiae,8 µg/mL
same,Ratio,Escherichia coli [8],2 - 4
same,Ratio,[9],20
same,IC50,DNA gyrase,0.17 µM
same,MIC,Shigella flexneri,4 µg/mL
same,Ratio,Escherichia coli [10],10 - 100
same,MIC,Escherichia coli [11],8 µg/mL
same,MIC,Escherichia coli [12],16 µg/mL
same,MIC,Escherichia coli [13],22 µg/mL
same,MIC,Acinetobacter baumannii,> 16 µg/mL
same,MIC,Streptococcus pyogenes,4 µg/mL
same,MIC,Escherichia coli [14],11 µg/mL
same,MIC,Klebsiella pneumoniae,> 16 µg/mL
same,MIC,Salmonella typhimurium,4 µg/mL
same,Ratio,Escherichia coli [15],2 - 4
same,MIC,Morganella morganii,> 16 µg/mL
same,MIC,Escherichia coli [16],0.8 µg/mL
same,Ratio,Escherichia coli [17],10 - 100
same,MIC,Escherichia coli [18],11 µg/mL
same,inhibition,[19],inactive
same,MIC,Edwardsiella tarda,8 µg/mL
same,Ratio,Escherichia coli [20],2 - 4
same,Ratio,Escherichia coli [21],10 - 100
same,Ratio,Escherichia coli [22],2 - 4
same,Ratio,Escherichia coli [23],2 - 4
same,MIC,Escherichia coli [24],1.6 µg/mL
same,MIC,[25],8 µg/mL
same,Ratio,Escherichia coli [26],2 - 4
same,MIC,Escherichia coli [27],4 µg/mL
same,MIC,[28],8 µg/mL
same,Ratio,Escherichia coli [29],10 - 100
same,MIC,Escherichia coli [30],5.5 µg/mL
same,MIC,Staphylococcus aureus,8 µg/mL
same,MIC,Escherichia coli [31],0.1 µg/mL
same,MIC,Klebsiella aerogenes,> 16 µg/mL
same,MIC,Escherichia coli [32],0.4 µg/mL
CO[C@@H]1[C@@H](OC(N)=O)[C@@H](O)[C@H](Oc2ccc3c(O)c(NC(=O)c4ccc(O)c(CC=C(C)C)c4)c(=O)oc3c2C)OC1(C)C [NOVOBIOCIN],Activity,Escherichia coli [33],inactive
same,MIC,Escherichia coli [34],3.2 µg/mL
same,MIC,Escherichia coli [35],0.8 µg/mL
same,MIC,Escherichia coli [6],12.8 µg/mL
same,MIC,Escherichia coli [36],6.4 µg/mL
same,MIC,Escherichia coli [37],102 µg/mL
same,MIC,Escherichia coli [38],6.3 µg/mL
same,MIC,Escherichia coli [27],> 100 µg/mL
same,MIC,Escherichia coli [31],3.2 µg/mL
same,MIC,Escherichia coli [39],0.4 µg/mL
same,MIC,Escherichia coli [40],0.4 µg/mL
